Assay results published in PMC5458211, “Mitochondrial VDAC1-based peptides: Attacking oncogenic properties in glioblastoma” (Oncotarget, 2017).
Non-standard residues stand in square brackets, D forms with d. Residues, ends and D or L forms follow the SMILES beside them.

Key:
[1] = test system: HK-I-GFP; experiment: HK-I-GFP detachment from mitochondria by confocal microscopy, U-87MG; format: cell-based, human; conditions: 7 μM, 3 h, serum-free medium
Experimental: Figure 2 Mode of action of VDAC1-based peptides – interacting with- and detaching HK, releasing Cyto c, decreasing ATP level and inducing apoptosis A. Purified HK-II was fluorescently labeled using the NanoTemper protein-labeling Kit BLUE. […] Then, 3-5 μl of the samples were loaded into MST-grade glass capillaries and thermophoresis was measured using a Monolith-NT115 apparatus, as described in Materials and methods available online in Supplemental information. […] The final DMSO concentration in control and peptide-treated cells was 0.07%. Fixed cells were visualized using confocal microscopy (Olympus 1×81), as described in Materials and Methods available online in Supplemental information. […] The levels of HK in the supernatants were quantified and are presented as relative units. D. D-ΔN-Ter-Antp induces mitochondrial inner membrane depolarization analyzed as described in Materials and Methods available online in Supplemental information. […] Cells then were analyzed for Δψ using TMRM. Δψ is presented as percentage of control. […] Release of Cyto c from the mitochondria was analyzed by immunostaining using anti-Cyto c antibodies and confocal microscopy (Olympus 1×81) as described in Materials and Methods available online in Supplemental information. […] Quantification of apoptosis in control and peptide's treated cells are presented bellow the images. […]

[2] = test system: U-118MG cells; experiment: Cell death by PI staining and flow cytometry, U-118MG; format: cell-based, human; conditions: 6 h at 37°C, serum-free medium, means ± SD (n=3), Fig 1H, read-out: IC50 for inducing cell death
Source text: Figure 1 VDAC1-based peptides induce dramatic cell death of several brain tumor-derived cell lines but to lesser extent in primary brain cells A. IHC staining of VDAC1 of human normal brain (n=13) or glioblastoma (n=41) in tissue array slides (Biomax), as described in Materials and methods available online in Supplemental information. Percentages of sections stained at the intensity indicated are shown. […] The VDAC1-derived sequences Δ(1-14)N-terminus and LP4 are in green and pink, respectively. The cell-penetrating peptides Antp and Tf are in orange and blue, respectively. The loop shape of LP4 stabilized by a tryptophan zipper is in purple. The amino acids of Δ(1-14)N-terminus, LP4 and Antp are in the D configuration. The sequences of D-LP4 and Retro-D-LP4 are presented below. C. […] Cells were harvested, washed twice with PBS and cell death was analyzed by propidium iodide (PI) staining and flow cytometry. […] Cells were harvested, washed twice with PBS and cell death was analyzed by PI staining and flow cytometry. […]
Cells (6×10^5 /ml) were incubated in 500 μl serum-free medium with the peptide of interest for 6 h at 37°C in the presence of 5% CO2. The cells were then trypsinized, centrifuged (1500xg, 5 min), washed with PBS and analyzed for cell death using propidium iodide (PI) staining and flow cytometer (Beckton-Dickinson, San Jose, CA) and BD CellQuest Pro software. […]

| SMILES | HK-I-GFP detachment (fluorescence distribution) [1] | IC50 [2] |
| --- | --- | --- |
| CC[C@@H](C)[C@@H](NC(=O)[C@@H](CCCCN)NC(=O)[C@H](NC(=O)[C@@H](CCC(N)=O)NC(=O)[C@@H](CCCNC(=N)N)NC(=O)[C@@H](CC(C)C)NC(=O)CNC(=O)[C@@H](Cc1ccccc1)NC(=O)CNC(=O)[C@@H](Cc1ccc(O)cc1)NC(=O)CNC(=O)[C@@H](CCCCN)NC(=O)[C@H](NC(=O)[C@@H](Cc1ccccc1)NC(=O)[C@H](NC(=O)[C@@H](CC(=O)O)NC(=O)[C@H](N)CCCNC(=N)N)C(C)C)[C@H](C)O)[C@H](C)CC)C(=O)N[C@H](Cc1c[nH]c2ccccc12)C(=O)N[C@H](Cc1ccccc1)C(=O)N[C@H](CCC(N)=O)C(=O)N[C@H](CC(N)=O)C(=O)N[C@H](CCCNC(=N)N)C(=O)N[C@H](CCCNC(=N)N)C(=O)N[C@H](CCSC)C(=O)N[C@H](CCCCN)C(=O)N[C@H](Cc1c[nH]c2ccccc12)C(=O)N[C@H](CCCCN)C(=O)N[C@H](CCCCN)C(=O)O [D-ΔN-Ter-Antp] (H-[dR][dD][dV][dF][dT][dK]G[dY]G[dF]G[dL][dR][dQ][dI][dK][dI][dW][dF][dQ][dN][dR][dR][dM][dK][dW][dK][dK]-OH; N-terminus and C-terminus assumed) | became diffuse | 5 ± 0.6 µM |
| CC[C@H](C)[C@H](NC(=O)[C@H](C)NC(=O)[C@@H](N)Cc1c[nH]cn1)C(=O)N[C@@H](Cc1ccc(O)cc1)C(=O)N1CCC[C@H]1C(=O)N[C@@H](CCCNC(=N)N)C(=O)N[C@@H](Cc1c[nH]cn1)C(=O)N[C@@H](CO)C(=O)N[C@@H](Cc1c[nH]c2ccccc12)C(=O)N[C@H](C(=O)N[C@@H](Cc1c[nH]c2ccccc12)C(=O)N[C@@H](CCC(=O)O)C(=O)N[C@H](CCCCN)C(=O)N[C@H](CCCCN)C(=O)N[C@H](CC(C)C)C(=O)N[C@H](CCC(=O)O)C(=O)N[C@@H](C(=O)N[C@H](C)C(=O)N[C@@H](C(=O)N[C@H](CC(N)=O)C(=O)N[C@H](CC(C)C)C(=O)N[C@H](C)C(=O)N[C@H](Cc1c[nH]c2ccccc12)C(=O)N[C@@H](C(=O)N[C@H](C)C(=O)NCC(=O)N[C@H](CC(N)=O)C(=O)N[C@H](CO)C(=O)N[C@H](CC(N)=O)C(=O)N[C@@H](CCCCN)C(=O)N[C@@H](Cc1c[nH]c2ccccc12)C(=O)N[C@H](C(=O)N[C@@H](Cc1c[nH]c2ccccc12)C(=O)N[C@@H](CCCCN)C(=O)O)[C@@H](C)O)[C@H](C)O)C(C)C)[C@H](C)O)[C@@H](C)O [Tf-D-LP4] | became diffuse | 1.7 ± 0.3 µM |
